Measured values taken from publication PMC4822253, “Inhibition of BMP and of TGFβ receptors downregulates expression of XIAP and TAK1 leading to lung cancer cell death” (Molecular Cancer, 2016).
pIC50: −log10 of the molar value.

How the values were obtained:
[1] = molecular target: T1, TGFbetaR2 (Homo sapiens, UniProt P37173); assay: In vitro kinase IC50; assay type: biochemical; conditions: kinase activity; ATP 10 Micromolar; 10-point, duplicate
T1 construct: purchased Reaction Biology Corporation (Malvern, PA)
T1 sequence (P37173 23-567): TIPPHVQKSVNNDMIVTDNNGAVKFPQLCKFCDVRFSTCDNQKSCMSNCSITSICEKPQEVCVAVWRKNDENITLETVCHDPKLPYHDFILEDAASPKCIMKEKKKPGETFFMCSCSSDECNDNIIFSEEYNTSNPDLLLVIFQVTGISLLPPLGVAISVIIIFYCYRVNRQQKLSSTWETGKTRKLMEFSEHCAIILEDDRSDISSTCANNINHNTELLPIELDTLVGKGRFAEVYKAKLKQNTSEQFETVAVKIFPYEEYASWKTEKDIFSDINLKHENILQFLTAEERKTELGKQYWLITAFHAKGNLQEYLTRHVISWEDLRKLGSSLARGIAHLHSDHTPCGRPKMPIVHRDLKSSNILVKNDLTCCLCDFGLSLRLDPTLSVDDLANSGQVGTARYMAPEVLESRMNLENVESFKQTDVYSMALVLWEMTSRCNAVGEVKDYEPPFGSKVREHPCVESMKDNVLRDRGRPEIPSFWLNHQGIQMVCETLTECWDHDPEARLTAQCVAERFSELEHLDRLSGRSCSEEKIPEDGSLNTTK
Text: The ATP concentration was 10 Micromolar.

[2] = tested on: H1299 Id1-luc tumor xenografts; assay: Tumor xenograft Id1 promoter-luciferase luminescence; assay type: in vivo, nude mice; conditions: 3 mg/kg IP; 4 h, 24 h, and 48 h following treatment; greatest effect at 24 h
Experimental: H1299 cells were stably transfected with the Id1 promoter-luciferase reporter. Five million cells were injected subcutaneously into the flank of NCI female nude mice. After approximately 12 days the mice were anesthetized and the luciferase activity measured. Baseline luciferase activity was obtained just prior to the injection of inhibitors. Mice were injected IP with 150 mg/kg luciferin-D and after a 15-min uptake period tumors were imaged with IVIS Spectrum and analyzed using Living Image software. […] The tumors were harvested on ice, homogenized, and placed in lysis buffer.

[3] = tested on: H1299 tumor xenografts; assay: Western blot analysis of tumor xenografts; assay type: in vivo, nude mice
Experimental: Total cellular protein was prepared using RIPA buffer containing a protease inhibitor cocktail and protein concentration was measured using the BCA assay as described. In brief, protein was analyzed by SDS-PAGE, transferred to nitrocellulose (Schleicher and Schuell, Keene, NH). After blocking, the blots were incubated overnight at 4 °C with the appropriate primary antibody in Tris-buffered saline with 1 % Tween (TBST) and 5 % BSA. Secondary antibodies were applied for 1 h at room temperature. Specific proteins were detected using the enhanced chemiluminescence system (Amersham, Arlington Heights, IL). […]
H1299 cells were stably transfected with the Id1 promoter-luciferase reporter. […] After approximately 12 days the mice were anesthetized and the luciferase activity measured. […] Mice were injected IP with 150 mg/kg luciferin-D and after a 15-min uptake period tumors were imaged with IVIS Spectrum and analyzed using Living Image software. […]

[4] = molecular target: T2, Alk2/ACVRR1 (Homo sapiens, UniProt Q04771); conditions: read-out: IC50 Alk2/ACVRR1; kinase activity; ATP 10 Micromolar; 10-point, duplicate
T2 sequence (Q04771 21-509): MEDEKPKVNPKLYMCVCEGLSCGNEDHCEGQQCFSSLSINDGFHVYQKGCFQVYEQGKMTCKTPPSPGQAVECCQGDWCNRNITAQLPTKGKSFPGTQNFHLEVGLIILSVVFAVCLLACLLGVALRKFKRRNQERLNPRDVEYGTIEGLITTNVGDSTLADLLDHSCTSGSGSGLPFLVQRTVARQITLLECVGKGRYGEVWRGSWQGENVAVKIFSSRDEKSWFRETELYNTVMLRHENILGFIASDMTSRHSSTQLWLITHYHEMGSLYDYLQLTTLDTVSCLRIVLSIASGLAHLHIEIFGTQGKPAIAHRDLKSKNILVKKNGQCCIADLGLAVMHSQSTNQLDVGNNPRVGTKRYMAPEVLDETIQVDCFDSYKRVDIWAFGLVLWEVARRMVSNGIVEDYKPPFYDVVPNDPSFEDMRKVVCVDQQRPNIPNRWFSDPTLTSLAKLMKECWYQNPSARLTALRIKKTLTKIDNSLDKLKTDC
Experimental: (§1) This was a 10-point assay starting from 100 μM to 100 nM performed in duplicate. The ATP concentration was 10 Micromolar.

[5] = molecular target: Alk3/BMPR1A (Homo sapiens, UniProt P36894); conditions: read-out: IC50 Alk3/BMPR1A; kinase activity; ATP 10 Micromolar; 10-point, duplicate
Sequence of Alk3/BMPR1A (P36894 24-532): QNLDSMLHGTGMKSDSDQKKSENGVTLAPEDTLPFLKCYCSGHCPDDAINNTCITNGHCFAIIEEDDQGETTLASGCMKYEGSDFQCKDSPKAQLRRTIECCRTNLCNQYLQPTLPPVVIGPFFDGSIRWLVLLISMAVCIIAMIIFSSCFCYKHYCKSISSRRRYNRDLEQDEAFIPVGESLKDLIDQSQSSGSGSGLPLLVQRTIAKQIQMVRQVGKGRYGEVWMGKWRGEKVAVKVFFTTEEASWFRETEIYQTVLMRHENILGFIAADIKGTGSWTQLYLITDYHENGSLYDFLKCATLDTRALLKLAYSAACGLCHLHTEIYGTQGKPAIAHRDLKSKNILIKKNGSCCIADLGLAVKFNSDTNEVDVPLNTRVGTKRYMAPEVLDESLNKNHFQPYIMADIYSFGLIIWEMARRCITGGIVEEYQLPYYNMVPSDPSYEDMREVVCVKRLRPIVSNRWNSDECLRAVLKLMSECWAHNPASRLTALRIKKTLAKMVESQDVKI
Experimental: as §1

[6] = molecular target: Alk6 (Homo sapiens, UniProt O00238); conditions: read-out: IC50 Alk6/BMPRII; kinase activity; ATP 10 Micromolar; 10-point, duplicate
Sequence of Alk6 (O00238 149-502 limits assumed): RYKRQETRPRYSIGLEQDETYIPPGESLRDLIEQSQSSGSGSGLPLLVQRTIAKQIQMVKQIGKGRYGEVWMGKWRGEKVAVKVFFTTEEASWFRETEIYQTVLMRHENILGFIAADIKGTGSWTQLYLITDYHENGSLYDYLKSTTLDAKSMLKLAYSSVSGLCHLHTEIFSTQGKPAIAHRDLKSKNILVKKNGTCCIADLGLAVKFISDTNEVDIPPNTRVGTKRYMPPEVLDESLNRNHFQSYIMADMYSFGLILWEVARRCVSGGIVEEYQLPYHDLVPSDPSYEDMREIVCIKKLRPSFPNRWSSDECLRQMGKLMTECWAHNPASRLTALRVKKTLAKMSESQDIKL
Experimental: as §1

[7] = Plasma protein binding by equilibrium dialysis; assay type: in vitro ADME; conditions: mouse plasma
[8] = tested on: lung cancer cell lines H157, A549, H1299, H727, U1752; assay: Western blot of Id1 in panel of lung cancer cell lines; assay type: cell-based; conditions: 1 μM; 48 h; all cell lines of the panel
Experimental: Total cellular protein was prepared using RIPA buffer containing a protease inhibitor cocktail and protein concentration was measured using the BCA assay as described. In brief, protein was analyzed by SDS-PAGE, transferred to nitrocellulose (Schleicher and Schuell, Keene, NH). After blocking, the blots were incubated overnight at 4 °C with the appropriate primary antibody in Tris-buffered saline with 1 % Tween (TBST) and 5 % BSA. Secondary antibodies were applied for 1 h at room temperature. Specific proteins were detected using the enhanced chemiluminescence system (Amersham, Arlington Heights, IL). The primary antibodies that were used were rabbit monoclonal anti-pSmad 1/5, rabbit monoclonal anti-pSmad2, rabbit monoclonal anti-Smad2, rabbit monoclonal anti-pTAK1, rabbit monoclonal XIAP, rabbit anti-monoclonal p-p65, rabbit monoclonal anti-activated caspase-3, rabbit polyclonal anti-BMPRII, and rabbit monoclonal anti-EGR-1 (Cell signaling Technology, Danvers MA), Rabbit monoclonal anti-TAK1 (Invitrogen, Grand Island NY), rabbit anti-actin, an affinity isolated antigen specific antibody (Sigma, Saint Louis, MO), rabbit monoclonal anti-Id1 and rabbit monoclonal anti-Id3 (Calbioreagents, San Mateo, CA), rabbit polyclonal anti-GAPDH (Sigma, St. Louis, MO) and rabbit polyclonal pMEK-1/2 (Cell Signaling, Danvers MA).
Additional file 1: Figure S1. […]

In the case of `c1ccc2c(-c3cnn4cc(-c5ccc(OCCN6CCOCC6)cc5)cnc34)ccnc2c1` [DMH2], the pIC50 [1] was 6.71, the “tumor luminescence (Id1 promoter) compared to baseline” value [2] was “increased” and the “increase in the expression of Id1 protein compared to controls” value ([3]; 9 days, twice-daily injection, normalized to GAPDH) was 103%. The “phosphorylated TAK1 and Smad2 in tumor xenografts” value ([3]; treated for 24 h and 9 days) was “increase”, the pIC50 [4] was 7.64 and the pIC50 [5] was 7.04. The pIC50 [6] was 7.37, the “percent binding plasma proteins” value [7] was 98.2 % +/−1.5 and the “expression of Id1” value [8] was “decreased”.
